Source: patent publication US5650395A, “Treatment of pulmonary hypertension” (priority 1995, dated 1997)
Where a SMILES comes first, the peptide text is derived from it. Where no end group is shown, it is not given here. [ ]: non-standard residue; d: D form. dPhe(F5) = N[C@H](Cc1c(F)c(F)c(F)c(F)c1F)C(=O)O

Key:
GRP receptor [1] = biological target: T1, GRP receptor (Rattus norvegicus, UniProt P52500); assay: GRP receptor binding assay ([125I-Tyr4]bombesin, AR42J cell membranes); conditions: 30 min, 4° C., read-out: IC50 (concentration required to inhibit 50% of specific binding of [125I-Tyr4]bombesin)
T1 construct: endogenous in cells; host or cells: Rat AR42J cells
Procedure: Membranes for the GRP receptor binding assay were obtained by homogenizing cultured AR42J cells (ATCC No. CRL-1492; American Type Culture Collection, Rockville, Md.) using a Polytron homogenizer (Brinkman Instruments, Westchester, N.Y.) at a setting of 6 for 15 sec. in an ice-cold 50 mM Tris-HCl buffer (Buffer A; Sigma, St. Louis, Mo.). See Singh, et al., 258 Am. J. Physiol. […] (1990). The homogenate was centrifuged twice at 39,000×g (10 min.) with an intermediate resuspension in fresh Buffer A. The final pellets were resuspended in Buffer A containing 0.1 mg/ml bacitracin and 0.1% bovine serum albumin (Buffer B) and held on ice for the receptor binding assay. Both bacitracin and bovine serum albumin were purchased from Sigma, St. Louis, Mo. Aliquots (0.4 ml) of the cell suspension were incubated with 0.05 ml of [^[…] ] bombesin (~2200 Ci/mmol; New England Nuclear, Boston, Mass.) in Buffer B and 0.05 ml of the test peptide (e.g., BIM-26226) at various concentrations (e.g., 0M to 10^-6 M) in Buffer B. […] Louis, Mo.). The filters were then washed three times with 5 ml aliquots of ice-cold Buffer A. Specific binding was defined as the total [^[…] ]bombesin bound in the presence of the test peptide minus that bound in the presence of 1 μM unlabeled GRP. […] BIM-26226, thus, has a high affinity for the GRP receptor. In other words, it is a GRP ligand.

GRP receptor [2] = biological target: T1, GRP receptor; assay: Calcium mobilization assay in AR42J cells (Fura-2AM); format: cell-based; conditions: for increase of intracellular calcium concentration: peptide alone at 10 nM, AR42J cells
Procedure: A working example follows:
Rat AR42J cells were cultured in DMEM medium containing 10% fetal bovine serum (Sigma, St. Louis, Mo.) in an atmosphere of 5% CO2 and 95% air at 37° C. After 5 days of culture, the cells were harvested by incubating in a 0.3% EDTA/phosphate buffered saline solution (Sigma, St. Louis, Mo.) (25° C.) and washed twice by centrifugation. The washed cells were resuspended in Hank's-buffered saline solution (HBSS) (Sigma, St. Louis, Mo.) for loading of the fluorescent Ca^2+ indicator Fura-2AM (Molecular Probes, Eugene, Oreg.). Cell suspensions of approximately 10^6 cells/ml were incubated with 2 μM Fura-2AM for 30 min at 25° C. Unloaded Fura-2AM was removed by centrifugation (twice) in HBSS, and the final cell suspensions were transferred to a spectrofluorometer (Hitachi F-2000, Tokyo, Japan) equipped with a magnetic stirring mechanism and a temperature-regulated cuvette holder. After equilibration to 37° C., a test peptide or a known GRP […] was added for measurement of Ca^2+ mobilization. The excitation and emission wavelengths were 340 and 510 nm, respectively.

[3] = system: patient with pulmonary hypertension; assay: Infusion in a patient with pulmonary hypertension secondary to liver disease (Swan-Ganz catheterization); format: in vivo, human
Excerpt: BIM-26226, a bombesin antagonist, was further administered to a patient to test its efficacy in lowering the pulmonary systolic or diastolic pressure.
The patient, complained of increasing shortness of breath under moderate exertion. […] A clinical diagnosis of pulmonary hypertension, secondary to liver disease, was made.
An 8 G french introducer (Arrow, Reading, Pa.) was inserted into the right internal jugular vein of the patient. A 7 G french triple lumen-balloon inflation lumen Swan-Ganz line (Abbot, N. Chicago, Ill.) was inserted through the introducer. The catheter was first floated through the right atrium and ventricle into the pulmonary artery, and was then connected to a Hewlett Packard monitor (Model 66s, M1166A) using modules M1006A, M1020A, 1029A, 1008A, and M1166A. Measurements of central venous pressure, pulmonary artery pressure, mean pulmonary pressure, cardiac index, cardiac output, and pulmonary vascular resistance were analyzed directly. A 20 G arterial line was inserted into the left radial artery (Arrow, Reading, Pa.) for measurement of systemic blood pressure and blood gas partial pressure estimations.
The study was conducted in two phases. The placebo phase, which lasted 24 hours, consisted of an infusion of normal saline (0.9% NaCl) at a constant rate of 50 ml/hr. The active phase consisted of an infusion of BIM-26226 in increasing concentrations. BIM-26226 was supplied as lyophilized powder. BIM-26226 was reconstituted in water, and then diluted in normal saline initially to give an infusion concentration of 5 μg/kg/hr. The concentration was increased every four hours to a maximum of 200 mcg/kg/hr. BIM-26226 was administered through the jugular line at a constant infusion rate of 50 ml/hr. Observations as detailed above were recorded at least hourly, though more often if indicated. In addition, blood samples were taken every four hours for biochemical profile, hematological screening, and both peripheral and central GRP levels. The GRP level samples were collected on ice, centrifuged, and snap-frozen. Analysis on the GRP levels was performed using an established radioimmunoassay.
FIG. 1 summarizes the study. The pulmonary systolic and diastolic pressures are compared between both the infusion of the saline placebo (Plac sys and Plac dias) and BIM-26226 (BIM sys and BIM dias). The doses of BIM-26226 administered and the administration scheme are shown at the top of FIG. 1, e.g., 5 μg/kg/hr four hours initially.

pulmonary haemodynamics = conditions: wide range of experimental conditions; cited from earlier work
[4] = system: isolated pulmonary arteries; conditions: cited from earlier work

T1 sequence (P52500 whole entry): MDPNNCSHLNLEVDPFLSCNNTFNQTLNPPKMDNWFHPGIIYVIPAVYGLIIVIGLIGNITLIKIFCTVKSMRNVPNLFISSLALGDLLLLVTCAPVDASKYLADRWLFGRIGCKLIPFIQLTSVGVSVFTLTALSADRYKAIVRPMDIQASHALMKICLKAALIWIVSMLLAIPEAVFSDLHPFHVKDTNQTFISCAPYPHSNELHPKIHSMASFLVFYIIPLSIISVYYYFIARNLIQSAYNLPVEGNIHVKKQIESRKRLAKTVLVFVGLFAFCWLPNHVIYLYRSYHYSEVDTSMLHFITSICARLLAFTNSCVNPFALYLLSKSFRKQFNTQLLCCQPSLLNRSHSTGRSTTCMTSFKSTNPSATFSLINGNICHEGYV

COC(=O)[C@H](CC(C)C)NC(=O)[C@H](Cc1c[nH]cn1)NC(=O)[C@@H](C)NC(=O)[C@@H](NC(=O)[C@H](C)NC(=O)[C@H](Cc1c[nH]c2ccccc12)NC(=O)[C@H](CCC(N)=O)NC(=O)[C@H](N)Cc1c(F)c(F)c(F)c(F)c1F)C(C)C [BIM-26226, H-D-F5 -Phe-Gln-TrP-Ala-Val-D-Ala-His-Leu-O-CH3] (H-[dPhe(F5)]QWAV[dA]HL-OMe)
IC50 (GRP receptor [1]): 0.5 nM
increase of intracellular calcium concentration (GRP receptor [2]): no effect
increase of intracellular calcium concentration by bombesin (10 nM) after pretreatment with antagonist (GRP receptor [2]; pretreated with BIM-26226 (10 nM)): 300 nM
reduction of bombesin-induced calcium increase versus bombesin alone (GRP receptor [2]; pretreated with BIM-26226 (10 nM), bombesin 10 nM): 205 nM
adverse events ([3]; active phase of infusion): Other than a mild urticarial response during the early active phase, the patient had no adverse events
pulmonary diastolic pressure ([3]; infusion rate of 200 μg/kg/hr, from 35 mm Hg): 42 mm Hg
pulmonary systolic pressure ([3]; infusion rate of 200 μg/kg/hr, from 90 mm Hg): 55 mm Hg
infusion rate at which pulmonary systolic pressure started to decrease ([3]; intravenous infusion, increasing doses every four hours): 25 µg/kg/h
pulmonary systolic pressure upon rechallenge ([3]; rechallenge after discontinuation): again dramatically decreased
blood biochemistry ([3]; upon infusion): no changes
cardiac index ([3]; upon infusion): no changes
cardiac output ([3]; upon infusion): no changes
peripheral vascular resistance ([3]; upon infusion): no changes
right atrial pressure ([3]; upon infusion): no changes
systemic blood pressure ([3]; upon infusion): no changes
period over which pulmonary pressure rose upon discontinuation of drug administration ([3]; within two half-lives of the drug): 15 min

CSCC[C@H](NC(=O)[C@H](CC(C)C)NC(=O)[C@H](Cc1cnc[nH]1)NC(=O)CNC(=O)[C@@H](NC(=O)[C@H](C)NC(=O)[C@H](Cc1c[nH]c2ccccc12)NC(=O)[C@H](CCC(N)=O)NC(=O)[C@H](CC(N)=O)NC(=O)CNC(=O)[C@H](CC(C)C)NC(=O)[C@H](CCCN=C(N)N)NC(=O)[C@H](CCC(N)=O)NC(=O)[C@@H]1CCC(=O)N1)C(C)C)C(N)=O [Bombesin]
increase of intracellular calcium concentration (GRP receptor [2]): 505 nM
in vivo pulmonary haemodynamic effect (pulmonary haemodynamics): neither bombesin nor GRP, under a wide range of experimental conditions, have any demonstrable in vivo pulmonary haemodynamic effect
effect on isolated pulmonary arteries [4]: not to have an effect

COc1ccc([C@@H]2Sc3ccccc3N(CCN(C)C)C(=O)[C@@H]2OC(C)=O)cc1 [diltiazem, reference compound]
effect on pulmonary pressure (therapeutic trial) ([3]; patient, before the BIM-26226 study): did not lower the pulmonary pressure

GRP: 27-amino acid peptide first isolated from the porcine gut (APVSVGGGTVLAKMYPRGNHWAVGHLM; ends and bridges not checked; UniProt P63153 24-50, looked up)
in vivo pulmonary haemodynamic effect (pulmonary haemodynamics): neither bombesin nor GRP, under a wide range of experimental conditions, have any demonstrable in vivo pulmonary haemodynamic effect
